Data: patent publication US9365541B2, “Compounds for use in the treatment of parasitic diseases” (IRBM—SCIENCE PARK S.P.A., priority 2012, dated 2016)

Legend:
human HDAC1 = molecular target: T1, human HDAC1 (Homo sapiens, UniProt Q13547); experiment: Homo sapiens HDAC1 inhibition assay (Fluor-de-Lys, enzymatic); format: biochemical; details: human HDAC enzymatic assay; read-out: hHDAC IC50
T1 construct: made in house; host or cells: HeLa (ATCC CCL-2), mammalian cells
How it was run: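 Product developed with trypsin developer containing 2 μM TSA to stop the reaction; fluorescence measures deacetylase activity, inversely related to inhibition.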

[1] = tested on: Plasmodium falciparum 3D7; experiment: P. falciparum growth inhibition assay (Pf-LDH); format: cell-based; details: Plasmodium falciparum, Erythrocyte; P. falciparum 3D7 infected erythrocytes, 72 h incubation, PfLDH readout
How it was run: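 P. falciparum 3D7 (chloroquine-sensitive) at 0.25% parasitemia and 2% hematocrit was incubated with compound for 72 h at 37° C under 4% CO2/3% O2/93% N2. After freeze-thaw, PfLDH activity was read at 650 nm with lactate/APAD/NBT/diaphorase mix (pH 8.0).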

T1 sequence (Q13547 whole entry): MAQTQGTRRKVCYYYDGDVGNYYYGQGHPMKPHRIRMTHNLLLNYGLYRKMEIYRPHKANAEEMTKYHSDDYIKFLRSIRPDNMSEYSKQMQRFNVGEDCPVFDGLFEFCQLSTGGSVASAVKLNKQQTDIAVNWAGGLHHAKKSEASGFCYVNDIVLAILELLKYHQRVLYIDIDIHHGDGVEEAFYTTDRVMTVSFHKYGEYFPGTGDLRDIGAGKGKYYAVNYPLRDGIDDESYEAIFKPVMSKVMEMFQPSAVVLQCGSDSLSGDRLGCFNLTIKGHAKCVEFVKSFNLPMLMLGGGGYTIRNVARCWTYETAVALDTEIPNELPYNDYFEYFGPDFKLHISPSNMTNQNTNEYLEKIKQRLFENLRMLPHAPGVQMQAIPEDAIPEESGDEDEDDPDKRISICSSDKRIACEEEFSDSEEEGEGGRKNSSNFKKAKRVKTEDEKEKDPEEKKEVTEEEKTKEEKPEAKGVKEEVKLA

IC50 (human HDAC1)	EC50 [1]	Structure (SMILES)
> 5 µM	1 to 5 µM	CNC(=O)CCCCC[C@H](NC(=O)c1cncs1)c1ncc(-c2cccc(-c3cc[nH]n3)c2)[nH]1 [Entry 188, (S)-N-(1-(5-(3-(1H-pyrazol-3-yl)phenyl)-1H-imidazol-2-yl)-7-(methylamino)-7-oxoheptyl)thiazole-5-carboxamide]
1 to 5 µM	1 to 5 µM	CNC(=O)CCCCC[C@H](NC(=O)c1cc(C(C)C)on1)c1ncc(-c2ccc3ccncc3c2)[nH]1 [Entry 189, (S)-5-isopropyl-N-(1-(5-(isoquinolin-7-yl)-1H-imidazol-2-yl)-7-(methylamino)-7-oxoheptyl)isoxazole-3-carboxamide]
< 1 µM	< 1 µM	CNC(=O)CCCCC[C@H](NC(=O)c1cncs1)c1ncc(-c2ccc3cc(C(F)(F)F)ncc3c2)[nH]1 [Entry 190]
1 to 5 µM	< 1 µM	CNC(=O)CCCCC[C@H](NC(=O)c1cncs1)c1ncc(-c2ccc3c(cnn3C)c2)[nH]1 [Entry 191, (S)-N-(1-(5-(1-methyl-1H-indazol-5-yl)-1H-imidazol-2-yl)-7-(methylamino)-7-oxoheptyl)thiazole-5-carboxamide]
> 5 µM	1 to 5 µM	CNC(=O)CCCCC[C@H](NC(=O)c1cncs1)c1ncc(-c2ccc(-c3ccccc3)nc2OC)[nH]1 [Entry 192, (S)-N-(1-(5-(2-methoxy-6-phenylpyridin-3-yl)-1H-imidazol-2-yl)-7-(methylamino)-7-oxoheptyl)thiazole-5-carboxamide]
< 1 µM	< 1 µM	CNC(=O)CCCCC[C@H](NC(=O)c1cncs1)c1ncc(-c2cc3ccccc3[nH]c2=O)[nH]1 [Entry 193, (S)-N-(7-(methylamino)-7-oxo-1-(5-(2-oxo-1,2-dihydroquinolin-3-yl)-1H-imidazol-2-yl)heptyl)thiazole-5-carboxamide]
< 1 µM	< 1 µM	CNC(=O)CCCCC[C@H](NC(=O)c1cncs1)c1ncc(-c2ccc3cc(OC)ccc3c2)[nH]1 [Entry 194, (S)-N-(1-(5-(6-methoxynaphthalen-2-yl)-1H-imidazol-2-yl)-7-(methylamino)-7-oxoheptyl)thiazole-5-carboxamide]
1 to 5 µM	1 to 5 µM	CNC(=O)CCCCC[C@H](NC(=O)c1cncs1)c1ncc(-c2ccc(-c3cccnc3)cc2)[nH]1 [Entry 196, (S)-N-(7-(methylamino)-7-oxo-1-(5-(4-(pyridin-3-yl)phenyl)-1H-imidazol-2-yl)heptyl)thiazole-5-carboxamide]
> 5 µM	1 to 5 µM	CNC(=O)CCCCC[C@H](NC(=O)c1csc(-c2cccnc2)n1)c1ncc(-c2ccc3ccccc3c2)[nH]1 [Entry 197, (S)-N-(7-(methylamino)-1-(5-(naphthalen-2-yl)-1H-imidazol-2-yl)-7-oxoheptyl)-2-(pyridin-3-yl)thiazole-4-carboxamide]
< 1 µM	1 to 5 µM	CNC(=O)CCCCC[C@H](NC(=O)CCc1cnn(C)c1)c1ncc(-c2ccc3ccccc3c2)[nH]1 [Entry 199, (S)-N-methyl-7-(3-(1-methyl-1H-pyrazol-4-yl)propanamido)-7-(5-(naphthalen-2-yl)-1H-imidazol-2-yl)heptanamide]
> 5 µM	1 to 5 µM	CNC(=O)CCCCC[C@H](NC(=O)c1nnc(C)o1)c1ncc(-c2ccc3ccccc3c2)[nH]1 [Entry 203, (S)-5-methyl-N-(7-(methylamino)-1-(5-(naphthalen-2-yl)-1H-imidazol-2-yl)-7-oxoheptyl)-1,3,4-oxadiazole-2-carboxamide]
1 to 5 µM	1 to 5 µM	CNC(=O)CCCCC[C@H](NC(=O)c1cncs1)c1ncc(-c2ccc(-c3ccccc3)s2)[nH]1 [Entry 205, (S)-N-(7-(methylamino)-7-oxo-1-(5-(5-phenylthiophen-2-yl)-1H-imidazol-2-yl)heptyl)thiazole-5-carboxamide]
> 5 µM	1 to 5 µM	CNC(=O)CCCCC[C@H](NC(=O)Cc1ncccn1)c1ncc(-c2ccc3ccncc3c2)[nH]1 [Entry 207]
< 1 µM	< 1 µM	CNC(=O)CCCCC[C@H](NC(=O)Cn1cc2ccccc2n1)c1ncc(-c2ccc3ccncc3c2)[nH]1 [Entry 208, (S)-7-(2-(2H-indazol-2-yl)acetamido)-7-(5-(isoquinolin-7-yl)-1H-imidazol-2-yl)-N-methyl-heptanamide]
> 5 µM	> 5 µM	CNC(=O)CCCCC[C@H](NC(=O)c1cscn1)c1ncc(-c2ccc(-c3ccn(C)n3)cc2)[nH]1 [Entry 209, (S)-N-(1-(5-(4-(1-methyl-1H-pyrazol-3-yl)phenyl)-1H-imidazol-2-yl)-7-(methylamino)-7-oxoheptyl)thiazole-4-carboxamide]
1 to 5 µM	< 1 µM	CNC(=O)CCCCC[C@H](NC(=O)c1cnsc1)c1ncc(-c2ccc(-c3ccn(C)n3)cc2)[nH]1 [Entry 210]

More lines, now with the values behind:

Structure (SMILES)	IC50 (human HDAC1)	EC50 [1]
CNC(=O)CCCCC[C@H](NC(=O)C12CCN(CC1)CC2)c1ncc(-c2ccc(Cl)c(C)c2)[nH]1 [Entry 181, (S)-N-(1-(5-(4-chloro-3-methylphenyl)-1H-imidazol-2-yl)-7-(methylamino)-7-oxo-heptyl)quinuclidine-4-carboxamide]	1 to 5 µM	> 5 µM
CNC(=O)CCCCC[C@H](NC(=O)OCc1ccccc1)c1ncc(-c2ccc(-c3ccn(C)n3)cc2)[nH]1 [Entry 182, (S)-benzyl(1-(5-(4-(1-methyl-1H-pyrazol-3-yl)phenyl)-1H-imidazol-2-yl)-7-(methylamino)-7-oxoheptyl)carbamate]	1 to 5 µM	1 to 5 µM
CNC(=O)CCCCC[C@H](NC(=O)c1ccc(N2CC(=O)NC2=O)cc1)c1ncc(-c2cc3ccccc3nc2OC)[nH]1 [Entry 183, (S)-4-(2,4-dioxoimidazolidin-1-yl)-N-(1-(5-(2-methoxyquinolin-3-yl)-1H-imidazol-2-yl)-7-(methylamino)-7-oxoheptyl)benzamide]	1 to 5 µM	1 to 5 µM
CNC(=O)CCCCC[C@H](NC(=O)Cn1cnnc1)c1ncc(-c2cc3ccccc3nc2OC)[nH]1 [Entry 184, (S)-7-(2-(4H-1,2,4-triazol-4-yl)acetamido)-7-(5-(2-methoxyquinolin-3-yl)-1H-imidazol-2-yl)-N-methylheptanamide]	1 to 5 µM	1 to 5 µM
CNC(=O)CCCCC[C@H](NC(=O)Cc1csc(-c2ccccc2)n1)c1ncc(-c2cc3ccccc3nc2OC)[nH]1 [Entry 185]	1 to 5 µM	1 to 5 µM
CNC(=O)CCCCC[C@H](NC(=O)CCc1c(C)nc2ncnn2c1C)c1ncc(-c2cc3ccccc3nc2OC)[nH]1 [Entry 186, (S)-7-(3-(5,7-dimethyl-[1,2,4]triazolo[1,5-a]pyrimidin-6-yl)propanamido)-7-(5-(2-methoxyquinolin-3-yl)-1H-imidazol-2-yl)-N-methylheptanamide]	< 1 µM	< 1 µM
CNC(=O)CCCCC[C@H](NC(=O)C1CCCO1)c1ncc(-c2cc3ccccc3nc2OC)[nH]1 (stereo partly drawn) [Entry 187, N-((S)-1-(5-(2-methoxyquinolin-3-yl)-1H-imidazol-2-yl)-7-(methylamino)-7-oxo-heptyl)tetra-hydrofuran-2-carboxamide]	> 5 µM	> 5 µM
CNC(=O)CCCCC[C@H](NC(=O)c1ccc(N2CC(=O)NC2=O)cc1)c1ncc(-c2ccc(-n3cccn3)cc2)[nH]1 [Entry 195, (S)-N-(1-(5-(4-(1H-pyrazol-1-yl)phenyl)-1H-imidazol-2-yl)-7-(methylamino)-7-oxoheptyl)-4-(2,4-dioxoimidazolidin-1-yl)benzamide]	> 5 µM	1 to 5 µM
CNC(=O)CCCCC[C@H](NC(=O)C1CC(=O)Nc2ccccc21)c1ncc(-c2ccc3ccccc3c2)[nH]1 (stereo partly drawn) [Entry 198, N-((S)-7-(methylamino)-1-(5-(naphthalen-2-yl)-1H-imidazol-2-yl)-7-oxoheptyl)-2-oxo-1,2,3,4-tetrahydroquinoline-4-carboxamide]	1 to 5 µM	< 1 µM
CNC(=O)CCCCC[C@H](NC(=O)Cc1c(C)[nH]c2ccc(OC)cc12)c1nnc(-c2ccc3ccccc3c2)o1 [Entry 200, (S)-7-(2-(5-methoxy-2-methyl-1H-indol-3-yl)acetamido)-N-methyl-7-(5-(naphthalen-2-yl)-1,3,4-oxadiazol-2-yl)heptanamide]	< 1 µM	1 to 5 µM
CNC(=O)CCCCC[C@H](NC(=O)CC1=CSC2=NCCCN12)c1ncc(-c2cc3ccccc3nc2OC)[nH]1 [Entry 201, (S)-7-(2-(6,7-dihydro-5H-thiazolo[3,2-a]pyrimidin-3-yl)acetamido)-7-(5-(2-methoxyquinolin-3-yl)-1H-imidazol-2-yl)-N-methylheptanamide]	1 to 5 µM	< 1 µM
CNC(=O)CCCCC[C@H](NC(=O)CC1=CSC2=NCCCN12)c1ncc(-c2ccc3ccccc3c2)[nH]1 [Entry 202, (S)-7-(2-(6,7-dihydro-5H-thiazolo[3,2-a]pyrimidin-3-yl)acetamido)-N-methyl-7-(5-(naphthalen-2-yl)-1H-imidazol-2-yl)heptanamide]	1 to 5 µM	< 1 µM
CNC(=O)CCCCC[C@H](NC(=O)C12CCN(CC1)CC2)c1ncc(-c2cc3ccccc3[nH]c2=O)[nH]1 [Entry 204, (S)-N-(7-(methylamino)-7-oxo-1-(5-(2-oxo-1,2-dihydroquinolin-3-yl)-1H-imidazol-2-yl)heptyl)quinuclidine-4-carboxamide]	1 to 5 µM	> 5 µM
CNC(=O)CCCCC[C@H](NC(=O)[C@@H]1CCCN2CCCC[C@H]12)c1ncc(-c2ccc3ccncc3c2)[nH]1 [Entry 206, (1R,9aR)-N-((S)-1-(5-(isoquinolin-7-yl)-1H-imidazol-2-yl)-7-(methylamino)-7-oxoheptyl)octa-hydro-1H-quinolizine-1-carboxamide]	1 to 5 µM	1 to 5 µM
